Peptide text beside a SMILES is read from it.
How the values were obtained:
APPSWE/Tg2576 mice = assay: Efficacy in 5-month-old AD model mice: Y-maze spontaneous alternation; assay type: in vivo, mouse; conditions: 5-month-old mice, 100 μg s.c. biweekly for 5 months, n = 12
[1] = system: SH-SY5Y neuroblastoma cell line; assay: Cell cytotoxicity assay; assay type: cell-based; conditions: up to a concentration of 20 μM; 72 h; CellTiterGlo

Compound	Y-maze % alternation, after vs before treatment (APPSWE/Tg2576 mice)	Toxicity in SH-SY5Y cells [1]
[FFVLK]4	improved % alternation results after treatment	
C[C@H](O)[C@@H](NC(=O)[C@@H](Cc1c[nH]c2ccccc12)NC(=O)[C@@H](CCC(=O)O)NC(=O)CNC(=O)[C@@H](CCCCN)NC(=O)[C@H](N)Cc1c[nH]c2ccccc12)C(=O)NCC(=O)N[C@H](CCCNC(=N)N)C(=O)NCCC(=O)NCCCC[C@H](NC(=O)CCNC(=O)[C@@H](CCCNC(=N)N)NC(=O)CNC(=O)[C@H](NC(=O)[C@@H](Cc1c[nH]c2ccccc12)NC(=O)[C@@H](CCC(=O)O)NC(=O)CNC(=O)[C@@H](CCCCN)NC(=O)[C@H](N)Cc1c[nH]c2ccccc12)[C@H](C)O)C(=O)NCCCC[C@H](NC(=O)[C@H](CCCCNC(=O)CCNC(=O)[C@@H](CCCNC(=N)N)NC(=O)CNC(=O)[C@H](NC(=O)[C@@H](Cc1c[nH]c2ccccc12)NC(=O)[C@@H](CCC(=O)O)NC(=O)CNC(=O)[C@@H](CCCCN)NC(=O)[C@H](N)Cc1c[nH]c2ccccc12)[C@H](C)O)NC(=O)CCNC(=O)[C@@H](CCCNC(=N)N)NC(=O)CNC(=O)[C@H](NC(=O)[C@@H](Cc1c[nH]c2ccccc12)NC(=O)[C@@H](CCC(=O)O)NC(=O)CNC(=O)[C@@H](CCCCN)NC(=O)[C@H](N)Cc1c[nH]c2ccccc12)[C@H](C)O)C(=O)N[C@@H](CS)C(=O)O [RI-peptide] (HELM PEPTIDE1{[dW].[dK].G.[dE].[dW].[dT].G.[dR].[bAla].K.K.C}|PEPTIDE2{[dW].[dK].G.[dE].[dW].[dT].G.[dR].[bAla].K}|PEPTIDE3{[dW].[dK].G.[dE].[dW].[dT].G.[dR].[bAla]}|PEPTIDE4{[dW].[dK].G.[dE].[dW].[dT].G.[dR].[bAla]}$PEPTIDE1,PEPTIDE4,10:R3-9:R2|PEPTIDE1,PEPTIDE2,11:R3-10:R2|PEPTIDE2,PEPTIDE3,10:R3-9:R2$$$V2.0; N-terminus and C-terminus assumed)		not toxic
